We go through 26 compounds from patent US7157457B2, “Compounds useful in the treatment of inflammatory diseases” (Glaxo Group Limited, priority 2000, dated 2007).

SMILES strings stand for the structures. Structures can show the parent of a compound that is named as a salt.

Experiment [1] deals with T1, CCR-3 (Homo sapiens, UniProt P51677).
T1 sequence (P51677 1-355): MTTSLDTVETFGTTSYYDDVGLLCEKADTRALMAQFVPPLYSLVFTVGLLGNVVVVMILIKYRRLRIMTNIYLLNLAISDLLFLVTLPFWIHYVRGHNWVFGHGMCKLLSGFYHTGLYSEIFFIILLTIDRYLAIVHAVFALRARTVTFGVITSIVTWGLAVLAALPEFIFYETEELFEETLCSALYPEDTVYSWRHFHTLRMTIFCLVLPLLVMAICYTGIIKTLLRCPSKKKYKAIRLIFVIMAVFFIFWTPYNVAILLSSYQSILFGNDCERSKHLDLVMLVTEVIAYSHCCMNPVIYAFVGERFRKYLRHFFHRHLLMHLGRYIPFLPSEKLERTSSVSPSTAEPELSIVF
As to the kind of experiment: CCR-3 competition binding SPA ([125I]eotaxin). On the set-up: expressed in transfected cells. The note with it: inhibition of [125I]eotaxin binding to membranes of K562 cells stably expressing CCR-3; mean of at least two experiments; read-out: CCR-3 Binding Assay (pIC50) (converted). As for the experimental part: A CCR-3 competition binding SPA (scintillation proximity assay) was used to assess the affinity of novel compounds for CCR-3. Membranes prepared from K562 cells stably expressing CCR-3 (2.5 μg/well) were mixed with 0.25 mg/well wheat-germ agglutinin SPA beads (Amersham) and incubated in binding buffer (HEPES 50 mM, CaCl2 1 mM, MgCl2 5 mM, 0.5% BSA) at 4° C. for 1.5 hr. Following incubation, 20 pM of [^125I] eotaxin (Amersham) and increasing concentrations of compound (1 pM to 30 μM) were added and incubated in a 96 well plate for 2 hr at 22° C. then counted on a Microbeta plate counter. The total assay volume was 100 μl. Competition binding data were analysed by fitting the data with a four parameter logistic equation. Data are presented as the mean pIC50 values (negative logarithm of the concentration of compound which inhibits [^125I]eotaxin binding by 50%) from at least two experiments.

For experiment [2], the target named is T1, CCR-3. As to the kind of experiment: Eosinophil chemotaxis assay (eotaxin-induced). On the set-up: Eosinophils were purified from human peripheral blood; endogenous in cells; host or cells: human peripheral blood eosinophils. Particulars: functional pKi; eosinophils from human peripheral blood; agonist eotaxin; read-out: CCR-3 Eosinophil Chemotaxis Assay (fpKi) (converted). Type of experiment: cell-based. As for the experimental part: (b) Eosinophil Chemotaxis Assay.
Compounds were evaluated for their inhibitory effect on eosinophil chemotaxis. Eosinophils were purified from human peripheral blood by standard CD16 cell depletion using a Miltenyi cell separation column and a magnetic Super Macs magnet as previously described (Motegi & Kita, 1998; J. Immunology. 161:4340–6). Cells were re-suspended in RPMI 1640/10% FCS solution and incubated with calcein-AM (Molecular Probes) at 37° C. for 30 mins. Following incubation, the eosinophils were centrifuged at 400 g for 5 min and re-suspended in RPMI/FCS at 2.2 million/ml. Cells were then incubated in the presence of increasing concentration of compounds (1 pM to 30 μM) at 37° C. for 30 mins. For control responses cells were incubated with RPMI/FCS only. The agonist eotaxin (either a concentration response curve or for the functional inhibition curves an EC80 concentration) was added to the lower chamber of a 96 well chemotaxis plate (5 μm filter: Receptor Technologies). Eosinophils (50 μl of 2 million/ml cells) were added to the top chamber of the filter plate and incubated at 37° C. for 45 mins. Cells remaining on top of the chemotaxis filter were removed and the number of eosinophils which had migrated were quantified by reading the plate on a fluorescent plate reader. Inhibition curves for the effect of compounds on eosinophil chemotaxis were analysed by fitting the data with a four parameter logistic equation. Functional pKi values (fpKi) were generated using the equation below (Lazareno & Birdsall, 1995. Br. J. Pharmacol 109: 1110–9).

The test system of experiment [3] is ovalbumin sensitised guinea pigs. Description: Guinea-pig ovalbumin model: eosinophil infiltration and hyper-reactivity. It is filed as in vivo. Particulars: 0.2–20 mg/kg, oral route. As for the experimental part:
(c) Guinea-pig Ovalbumin Model
Inhibition of Eosinophil Infiltration and Hyper-Reactivity in the Guinea Pig
In a method based on that described by Danahay et al., 1997, ovalbumin sensitised guinea pigs were dosed with mepyramine (30 mg kg^−1 ip) to protect against anaphylactic bronchospasm. Test compounds, dissolved in 10% DMSO and 90% PEG200, were given by the oral route, 30 minutes before ovalbumin challenge (10 minutes breathing of an aerosol generated from a 0.5% solution of ovalbumin). Hyper-reactivity of the airways to the thromboxane mimetic U46619, was measured 24 hours after ovalbumin challenge in unrestrained animals using a whole body plethysmograph (Buxco Ltd., USA). The guinea pigs were then sacrificed and the lungs lavaged. Total and differential leukocyte counts were then obtained for the bronchoalveolar lavage fluid and the percentage reduction in eosinophil accumulation determined (Sanjar et al., 1992). Data was presented as the inhibitory effect of the specified dose expressed as a percentage of the vehicle control response.

`CCOC(=O)C(c1ccccc1)N1CCOC(CNC(=O)Nc2ccc(Cl)cc2)C1` (stereo not shown) [Example 44, Ethyl {2-[({[(4-chlorophenyl)amino]carbonyl}amino)methyl]morpholin-4-yl}(phenyl)acetate]: the IC50 on CCR-3 [1] is 10500 nM.

On to `CSc1cccc(NC(=O)NCC2CN(Cc3ccc(Cl)c(Cl)c3)CCO2)c1` (stereo not shown) [Example 18, N-{[4-(3,4-Dichlorobenzyl)morpholin-2-yl]methyl}-N′-[3-(methylthio)phenyl]urea], for which the Ki on CCR-3 [2] was 1450 nM. On to `O=C(NCC1CN(Cc2ccc(Cl)c(Cl)c2)CCO1)Nc1ccc(Cl)cc1` (stereo not shown) [Example 14, N-(4-Chlorophenyl)-N′-{[4-(3,4-dichlorobenzyl)morpholin-2-yl]methyl}urea], for which the “inhibition of lung eosinophilia” value in experiment [3] is “showed inhibition”. In addition, the “inhibition of bronchial hyperreactivity” value in experiment [3] (hyper-reactivity to U46619) is on record as “showed inhibition”. The IC50 on CCR-3 [1] is 661 nM. `N#Cc1cccc(NC(=O)NCC2CN(Cc3ccc(Cl)c(Cl)c3)CCO2)c1` (stereo not shown) [Example 5, N-(3-Cyanophenyl)-N′-{[4-(3,4-dichlorobenzyl)morpholin-2-yl]methyl}urea]: on CCR-3 [1], the IC50 was 117 nM. Still for that read-out and setting: under `O=C(NCc1ccc(Cl)cc1)NCC1CN(Cc2ccc(Cl)c(Cl)c2)CCO1` (stereo not shown) [Example 47, N-(4-Chlorobenzyl)-N′-{[4-(3,4-dichlorobenzyl)morpholin-2-yl]methyl}urea] stands 66.1 nM; under `Cc1ccc(CNC(=O)NCC2CN(Cc3ccc(Cl)c(Cl)c3)CCO2)cc1` (stereo not shown) [Example 3, N-{[4-(3,4-Dichlorobenzyl)morpholin-2-yl]methyl}-N′-(4-methylbenzyl)urea], 69.2 nM; under `C=Cc1ccc(CN2CCOC(CNC(=O)Nc3ccc(Cl)cc3)C2)cc1` (stereo not shown) [Example 38, N-(4-Chlorophenyl)-N′-{[4-(4-vinylbenzyl)morpholin-2-yl]methyl}urea], 1910 nM. Consider `O=C(NCC1CN(Cc2ccc(Cl)s2)CCO1)Nc1ccc(Cl)cc1` (stereo not shown) [Example 37, N-(4-Chlorophenyl)-N′-({4-[(5-chlorothien-2-yl)methyl]morpholin-2-yl}methyl)urea], for which, at CCR-3 [1], the IC50 is 3800 nM. In the case of `Cn1nnc(CNC(=O)NC[C@H]2CN(Cc3ccc(Cl)c(Cl)c3)CCO2)n1` [Example 136, N-{[(2S)-4-(3,4-dichlorobenzyl)morpholin-2-yl]methyl}-N′-[(2-methyl-2H-tetraazol-5-yl)methyl]urea], the Ki at CCR-3 [2] is 5.01 nM. For the same compound, the IC50 on CCR-3 [1] is 15.8 nM. For `O=C(NCc1cccc(Cl)c1)NCC1CN(Cc2ccc(Cl)c(Cl)c2)CCO1` (stereo not shown) [Example 48, N-(3-Chlorobenzyl)-N′-{[4-(3,4-dichlorobenzyl)morpholin-2-yl]methyl}urea], the Ki on CCR-3 [2] is 38.9 nM. As for `O=C(NCC1CN(Cc2ccc(Cl)c(Cl)c2)CCO1)Nc1ccc(SC(F)(F)F)cc1` (stereo not shown) [Example 34, N-{[4-(3,4-Dichlorobenzyl)morpholin-2-yl]methyl}-N′-{4-[(trifluoromethyl)thio]phenyl}urea], on CCR-3 [1], the IC50 was 2000 nM. Still for that read-out and setting: under `O=C(NCC1CN(Cc2ccc(Cl)c(Cl)c2)CCO1)Nc1cccc(C(F)(F)F)c1` (stereo not shown) [Example 22, N-{[4-(3,4-Dichlorobenzyl)morpholin-2-yl]methyl}-N′-[3-(trifluoromethyl)phenyl]urea] stands 955 nM. As for `O=C(NCC1CN(Cc2cccc3ccccc23)CCO1)Nc1ccc(Cl)cc1` (stereo not shown) [Example 19, N-(4-Chlorophenyl)-N′-{[4-(1 naphthylmethyl)morpholin-2-yl]methyl}urea], the Ki on CCR-3 [2] was 1100 nM.

Turning to `O=C(NCC1CN(Cc2ccc3ccccc3c2)CCO1)Nc1ccc(Cl)cc1` (stereo not shown) [Example 23, N-(4-Chlorophenyl)-N′-{[4-(2-naphthylmethyl)Morpholin-2-yl]methyl}urea], the IC50 at CCR-3 [1] is 832 nM.

With `N#Cc1ccc(NC(=O)NCC2CN(Cc3ccc(Cl)c(Cl)c3)CCO2)cc1` (stereo not shown) [Example 25, N-(4-Cyanophenyl)-N′-{[4-(3,4-dichlorobenzyl)morpholin-2-yl]methyl}urea], the IC50 at CCR-3 [1] was 1000 nM. As to `O=C(NCCc1ccccc1)NCC1CN(Cc2ccc(Cl)c(Cl)c2)CCO1` (stereo not shown) [Example 8, N-{[4-(3,4-Dichlorobenzyl)morpholin-2-yl]methyl}-N′-(2-phenylethyl)urea], on CCR-3 [2], the Ki was 115 nM. In the case of `O=C(NCC1CN(Cc2cccc(I)c2)CCO1)Nc1ccc(Cl)cc1` (stereo not shown) [Example 21], the IC50 at CCR-3 [1] is 955 nM. Turning to `NC(=O)c1ccc(CNC(=O)NC[C@H]2CN(Cc3ccc(Cl)c(Cl)c3)CCO2)cc1` [Example 54, 4-({[({[(2S)-4-(3,4-Dichlorobenzyl)morpholin-2-yl]methyl}amino)carbonyl]amino}methyl)benzamide], the Ki at CCR-3 [2] is 15.8 nM. For the same compound, the IC50 at CCR-3 [1] was 11 nM. As to `O=C(NCC1CN(Cc2ccc(Cl)c(Cl)c2)CCO1)Nc1ccc(OC(F)F)cc1` (stereo not shown) [Example 16, N-{[4-(3,4-Dichlorobenzyl)morpholin-2-yl]methyl}-N′-[4-(difluoromethoxy)phenyl]urea], at CCR-3 [1], the IC50 is 741 nM. Take `Cc1cccc(CNC(=O)NCC2CN(Cc3ccc(Cl)c(Cl)c3)CCO2)c1` (stereo not shown) [Example 4, N-{[4-(3,4-Dichlorobenzyl)morpholin-2-yl]methyl}-N′-(3-methylbenzyl)urea]: the Ki at CCR-3 [2] is 44.7 nM. Consider `CNC(=O)c1ccc(CNC(=O)NC[C@H]2CN(Cc3ccc(Cl)c(Cl)c3)CCO2)cc1` [Example 149, 4-({[({[(2S)-4-(3,4-dichlorobenzyl)morpholin-2-yl]methyl}amino)carbonyl]amino}methyl)-N-methylbenzamide], for which the Ki at CCR-3 [2] is 15.8 nM. For the same compound, on CCR-3 [1], the IC50 is 15.8 nM.

With `C#CCNC(=O)NC[C@H]1CN(Cc2ccc(Cl)c(Cl)c2)CCO1` [Example 57, N-{[(2S)-4-(3,4-Dichlorobenzyl)morpholin-2-yl]methyl}-N′-prop-2-ynylurea], at CCR-3 [2], the Ki was 9.77 nM.

Consider `COc1ccc(CNC(=O)NCC2CN(Cc3ccc(Cl)c(Cl)c3)CCO2)cc1` (stereo not shown) [Example 2, N-{[4-(3,4-Dichlorobenzyl)morpholin-2-yl]methyl}-N′-(4-methoxybenzyl)urea], for which the Ki on CCR-3 [2] is 49 nM. On to `O=C(NCC1CN(Cc2cccc(Cl)c2)CCO1)Nc1ccc(Cl)cc1` (stereo not shown) [Example 26, N-{[4-(3-Chlorobenzyl)morpholin-2-yl]methyl}-N′-(4-chlorophenyl)urea], for which the Ki on CCR-3 [2] is 1410 nM.

In the case of `CC(=O)Nc1cccc(CNC(=O)NCC2CN(Cc3ccc(Cl)c(Cl)c3)CCO2)c1` (stereo not shown) [Example 52, N-[3-({[({[4-(3,4-Dichlorobenzyl)morpholin-2-yl]methyl}amino)carbonyl]amino}methyl)phenyl]acetamide Formate], the IC50 on CCR-3 [1] was 1.78 nM. Take `O=C(NCC1CN(Cc2ccc(Cl)c(Cl)c2)CCO1)Nc1cccc(Cl)c1` (stereo not shown) [Example 13, N-(3-Chlorophenyl)-N′-{[4-(3,4-dichlorobenzyl)morpholin-2-yl]methyl}urea]: the Ki on CCR-3 [2] is 407 nM.
